According to article PMC6269876, “Pancreatic Lipase Inhibitory Gallotannins from Galla Rhois with Inhibitory Effects on Adipocyte Differentiation in 3T3-L1 Cells” (Molecules, 2013):

Tests used:
[1] = molecular target: T1, porcine pancreatic lipase (Sus scrofa, UniProt P00591); assay: Pancreatic lipase activity assay (p-nitrophenylbutyrate hydrolysis); type: biochemical; conditions: for IC50: mean ± SD of three replicates, regression analysis, read-out: Pancreatic lipase inhibitory activity IC50
T1 construct: purchased Sigma, St. Louis, MO, USA
T1 sequence (P00591 1-450): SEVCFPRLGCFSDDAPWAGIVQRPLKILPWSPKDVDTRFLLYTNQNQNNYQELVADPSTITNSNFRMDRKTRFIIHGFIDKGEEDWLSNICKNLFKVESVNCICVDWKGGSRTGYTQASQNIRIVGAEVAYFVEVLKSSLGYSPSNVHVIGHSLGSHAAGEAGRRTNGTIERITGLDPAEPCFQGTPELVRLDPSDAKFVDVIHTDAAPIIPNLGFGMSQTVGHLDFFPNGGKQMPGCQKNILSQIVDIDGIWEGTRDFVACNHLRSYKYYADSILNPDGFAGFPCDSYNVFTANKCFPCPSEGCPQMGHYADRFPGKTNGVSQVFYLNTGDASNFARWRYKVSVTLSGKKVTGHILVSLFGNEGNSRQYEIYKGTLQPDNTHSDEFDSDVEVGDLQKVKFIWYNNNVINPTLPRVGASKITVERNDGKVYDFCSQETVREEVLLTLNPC
Protocol: A previously reported method, with a minor modification, was used for evaluation of the ability of the compounds to inhibit porcine pancreatic lipase. Briefly, an enzyme buffer was prepared by addition of 30 μL (10 units) of a solution of porcine pancreatic lipase (Sigma, St. Louis, MO, USA) in 10 mM morpholinepropanesulphonic acid (MOPS) and 1 mM EDTA (pH 6.8) to 850 μL of Tris buffer (100 mM Tris-HC1 and 5 mM CaCl2, pH 7.0). […] Inhibition of lipase activity was expressed as the percentage decrease in the optical density (OD) when porcine pancreatic lipase was incubated with the test compounds.

[2] = test system: 3T3-L1 cells; assay: Assay of adipocyte differentiation in 3T3-L1 cells (Oil Red O staining); type: cell-based; conditions: Mus musculus, 3T3-L1, 50 μM, treated throughout the differentiation period; read-out: Inhibition of lipid deposition (lipid accumulation)
Protocol: Of particular interest, a certain degree of galloylation on the glucose moiety of these active molecules appears to be required for potent inhibitory activity. […] The non-toxic concentrations of the tested compounds were established in 3T3-L1 preadipocytes using concentrations of 50, 25, and 10 μM. After two days of incubation, an MTT assay was performed for measurement of cell viability; according to the results, no cytotoxic effect was detectable for any of the tested compounds in concentrations up to 50 μM. […] 3T3-L1 mouse embryo fibroblasts were cultured in DMEM supplemented with 10% FBS until reaching confluence. Two days after reaching confluence (day 0), to initiated differentiation, cells were stimulated with differentiation medium containing DMEM with 10% FBS, 0.5 mM 3-isobutyl-1-methylxanthine, 1 μM insulin and 1 μM dexamethasone for two days (day 2). […] All media contained 100 IU/mL penicillin and 100 μg/mL streptomycin. Cells were maintained at 37 °C in a humidified atmosphere of 95% air-5% CO2. Throughout the culture period (days 0–8), the cultures were treated with test samples for general experiments, with a slight modification. […] For quantitative analysis, Oil Red O staining was dissolved with isopropyl alcohol and optical density was measured at 500 nm using an ELISA plate reader.

SMILES	IC50 [1]	inhibition at 50 µM [2]	Pancreatic lipase inhibition, result in words [1]
C[C@H]1O[C@H](C)[C@@H](O)C2=C1C(=O)c1c(O)cc(O)c(-c3c4c(c(O)c5c(O[C@@H]6O[C@H](CO)[C@@H](O)[C@H](O)[C@H]6O)cc(O)cc35)[C@@H](C)O[C@H](C)[C@H]4O)c1C2=O [Compound 1, protoaphin-fb]	30.6 ± 2.4 µM		
O=C(OC[C@H]1O[C@@H](OC(=O)c2cc(O)c(O)c(O)c2)[C@H](OC(=O)c2cc(O)c(O)c(OC(=O)c3cc(O)c(O)c(O)c3)c2)[C@@H](OC(=O)c2cc(O)c(O)c(O)c2)[C@@H]1OC(=O)c1cc(O)c(O)c(O)c1)c1cc(O)c(O)c(O)c1 [Compound 2, 2-O-digalloyl-1,3,4,6-tetra-O-galloyl-β-D-glucose]	3.5 ± 0.5 µM	64%	
O=C(OC[C@H]1O[C@@H](OC(=O)c2cc(O)c(O)c(O)c2)[C@H](OC(=O)c2cc(O)c(O)c(O)c2)[C@@H](OC(=O)c2cc(O)c(O)c(O)c2)[C@@H]1OC(=O)c1cc(O)c(O)c(O)c1)c1cc(O)c(O)c(O)c1 [Compound 3, 1,2,3,4,6-penta-O-galloyl-β-D-glucose]	15.9 ± 1 µM		
O=C(O)c1cc(O)c(O)c(O)c1 [Compound 7, gallic acid]	> 300 µM		inactive

Continued, in another order:

IC50 [1]	SMILES	inhibition at 50 µM [2]	Pancreatic lipase inhibition, result in words [1]
23.2 ± 1.8 µM	O=C(OC[C@H]1O[C@@H](OC(=O)c2cc(O)c(O)c(O)c2)[C@H](OC(=O)c2cc(O)c(O)c(O)c2)[C@@H](O)[C@@H]1OC(=O)c1cc(O)c(O)c(O)c1)c1cc(O)c(O)c(O)c1 [Compound 4, 1,2,4,6-tetra-O-galloyl-β-D-glucose]		
> 300 µM	COC(=O)c1cc(O)c(O)c(O)c1 [Compound 6, methylgallate]		inactive
